For the molecule `COC(=O)C1=C(C)NC2=C(C(=O)CN(CC(O)COc3cccc(C)c3C)C2)C1c1c(F)ccc(Cl)c1Cl` (configuration not stated), the melting point was 190 to 193 °C. As for `OCCOc1ccc(I)cc1`, the figure is 76 to 77 °C; as for `CC(C)n1nc2cccc([N+](=O)[O-])c2n1`, 65 to 67 °C; as for `C[C@H]1Oc2ccc(F)cc2NC(=O)[C@H]1NC(=O)OC(C)(C)C`, 141 to 148 °C. As for `CNC(=O)c1ccc(C=CC(=O)Nc2cccc(-c3ccc(C)c(CCl)c3C)c2)cc1`, the figure is 236 to 244 °C; as for `CC1SCCCNc2ccccc21` (configuration not stated), 72 to 74 °C. In the case of `CCCCN(CCCC)c1ccc(C=Cc2ccc(C(C#N)=C(C#N)C#N)s2)c(OCc2ccccc2)c1`, the melting point fell in the range of 125 to 130 °C. With `CC(C)(C)[Si](C)(C)O[C@@H]1c2sccc2[C@]2(O[Si](C)(C)C(C)(C)C)C[C@H]1OC2=O` the figure was 133 to 137 °C. On to `CSc1cc(C)nc(SC)c1NC(=O)CCCCCCCSc1nc2ccccc2s1`, for which the melting point is 104 to 108 °C.

Take `COc1ccc(C2=NN(c3ccc(CC(=O)O)cc3)C(=O)[C@H]3CC=CC[C@@H]23)cc1OC` (relative stereo): the melting point worked out at 162 °C. `CC1(C)CCCC(N=[N+]=[N-])C(=O)N1` (configuration not stated) returned a melting point of 98 to 100 °C. As for `CCCCCCCCN(SN(C(=O)NC(=O)c1ccccc1[N+](=O)[O-])c1ccc(Oc2ncc(Br)cn2)c(Cl)c1)C(=O)OC`, the figure is 51 to 54 °C; as for `CCC1Cn2c(ncc(C(=O)O)c2=O)-c2ccccc21` (configuration not stated), 167 to 169 °C.

`CSc1coc2ccccc2c1=O`: the melting point fell in the range of 103 to 105 °C. In turn, `O=C(CN1C(=O)c2ccccc2C1=O)Nc1ccccc1Nc1ccccc1` had a melting point of 191 °C. With `COC(=O)C(C)(C)OCc1nn(Cc2ccccc2)c2ccccc12` the figure was 66 to 67 °C; with `Nc1sc(-c2cccc(F)c2)c(CN(C2CCCCC2)C2CCCCC2)c1C(=O)c1ccc(Cl)cc1`, 205 to 207 °C; with `C=Cc1ccc(Cc2ccc(C=C)cc2)cc1`, 30 to 33 °C. For `O=C(c1ccc(Cl)c(Cl)c1)c1ccc(O)c(Cl)c1Cl`, the melting point lay in the range of 179 to 180 °C. As for `CCOC(=O)C(CC1C(O)C2CCN1CC2)c1ccccc1` (configuration not stated), the figure is 148 °C; as for `Cn1cc(CC(NC(=O)CCS)C(=O)O)c2ccccc21` (racemic), 115 to 117 °C. As for `CC(=O)Oc1ccc(CC2SC(=O)N(C(c3ccccc3)(c3ccccc3)c3ccccc3)C2=O)cc1` (configuration not stated), the figure is 152 to 156 °C; as for `COc1ccc(S(=O)(=O)N2C(=O)C(O[Si](C)(C)C)(c3ccccc3OC)c3cc(Cl)ccc32)c(OC)c1` (configuration not stated), 157 to 158 °C; as for `COc1ccc(C(O)C(=S)N(C)C)cc1` (configuration not stated), 101 °C. In turn, `COc1ccc2c(Cl)nccc2c1` gave a melting point of 72 to 74 °C. As for `CCCc1nc(C(=O)C(C)(C)C)c(C#N)n1Cc1ccc(-c2ccccc2-c2nnnn2C(c2ccccc2)(c2ccccc2)c2ccccc2)cc1`, the figure is 107 to 110 °C; as for `COC(=O)Cc1ccc(OCc2ccc3ccccc3n2)c(Cl)c1`, 79 °C. As for `COc1cccc(Sc2cccc([N+](=O)[O-])c2C#N)c1`, the figure is 144 to 147 °C; as for `CC(=O)Nc1ccc(C(C)=O)c2c1OCCO2`, 142 to 144 °C. As for `CCN(CC)c1cccc2nc3n(c12)CC(F)(F)CN3c1ccc(Cl)cc1Cl`, the figure is 125 to 127 °C. `CC(C)(C)OC(=O)N1CCC(c2nc3cc(-c4ccc(-n5cnnn5)c(F)c4)ccc3o2)CC1` had a melting point of 154 to 159 °C. As for `Fc1ccc(C(c2ccc(F)c(F)c2)c2ccc(F)c(F)c2)cc1F`, the figure is 95 to 96 °C; as for `Cc1cc(C)c(S(=O)(=O)NC(CN2CCCc3cc(C)ccc32)C(F)(F)F)c(C)c1` (configuration not stated), 143 to 144 °C.

`CN(C)S(=O)(=O)c1ccc(N)cc1C(F)(F)F`: the melting point lay in the range of 140 to 142 °C. With `CC(N)CC(=O)Nc1c(OCC(F)(F)F)cccc1-c1ccccn1` (configuration not stated) the figure was 135 to 137 °C. With `C[C@H](NC(=O)C12CC3CC(CC(C3)C1)C2)C(=O)N1CCC[C@H]1C(=O)Nc1ccccc1` the figure was 119 to 121 °C; with `CCCCN(CCCCO)c1ccc(C=Cc2ccc(C=CC3=C(C#N)C(=C(C#N)C#N)OC3(C)C)s2)c(OCc2ccccc2)c1`, 216 to 217 °C. As for `CC(=O)OCC1=CC(=O)C=C2CCC3C4CCC(=O)C4(C)CCC3C21C` (configuration not stated), the figure is 121 to 123 °C; as for `CC(=O)Oc1cc(C)cc2c1C1=C(CCC(C)C1)C(C)(C)O2` (configuration not stated), 115 to 119 °C; as for `CCOC(=O)CC(=O)COCC1=C(C(=O)OCC)C(c2ccccc2Cl)C(C(=O)OC)=C(C)N1` (configuration not stated), 88 to 89 °C. For the molecule `O=C(COc1cc(F)ccc1C(=O)NCc1cccc([N+](=O)[O-])c1)OC1CCCCC1`, the melting point fell in the range of 87 to 90 °C.

Regarding `C#CC[C@@H](N)c1nc2cc(Cl)ccc2c(=O)n1Nc1ccccc1`, the melting point fell in the range of 175 to 180 °C. With `CC(=Cc1ccc(Cl)cc1Cl)[N+](=O)[O-]` the figure was 75 °C; with `CC1(C)OCCC2CC(=O)N21` (configuration not stated), 60 to 61 °C; with `CCCCc1noc(-c2sccc2N)n1`, 69 to 70 °C. With `Nc1noc(C23CCCN(C2)C3)n1` the figure was 167 to 170 °C. As for `N#CC(C(=O)Nc1ccccn1)C(=O)c1nn(-c2ccccc2)c2c1CSc1ccccc1-2` (configuration not stated), the figure is 258 to 260 °C; as for `CCCCSc1cc(N)c([N+](=O)[O-])cc1N`, 129 °C. For the molecule `COc1c(C)c2c(c(O)c1C/C=C(\C)C(CC(=O)O)OC)C(=O)OC2` (configuration not stated), the melting point was 133 to 135 °C. Molecule `CCC(C)(C)N1CCN(C(=O)Nc2ccc3[nH]c(C(=O)N4CCN(c5ncccc5NC(C)C)CC4)cc3c2)CC1` returned a melting point of 240 to 242 °C. In turn, `O=S(=O)(c1ccc(S)cc1)c1ccc(S)cc1` yielded a melting point of 138 to 140 °C. As for `CCc1c(N)c(Cl)cc(Cc2cc(Cl)c(N)c(CC)c2Cl)c1Cl`, the figure is 146 to 148 °C; as for `CC(C)Oc1nc2cc(-n3ccc(=O)cc3)c([N+](=O)[O-])cc2nc1OC(C)C`, 217 to 219 °C; as for `Clc1ccc2c(C3CCNCC3)c[nH]c2c1Cl`, 254 to 257 °C. As for `Cc1cc(-c2ccc(C(F)(F)F)nc2)cc(-c2cccc(-c3cccc(S(N)(=O)=O)c3)c2)n1`, the figure is 227 to 232 °C; as for `O=C1c2ccccc2C(Nc2ccc(Cl)cc2)N1CCCN1CC=C(c2ccccc2)CC1` (configuration not stated), 188 °C. As for `O=C1CN(SC(Cl)(Cl)Cl)C(=O)N1SC(Cl)(Cl)Cl`, the figure is 142 °C; as for `O=C(O)c1cc([N+](=O)[O-])ccc1NCc1ccco1`, 190 to 192 °C; as for `Cc1ccc(Nn2c(-c3ccccc3)c(C)[nH]c2=S)cc1Cl`, 190 °C. As to `CC(C)(C)OC(=O)N[C@@H](Cc1ccc2ccccc2c1)C(=O)OCc1ccccc1`, the melting point lay within 90 to 91 °C.

The molecule `O=C1c2cccc(O)c2NC(O)C2CCCN12` (configuration not stated) displayed a melting point of 155 to 157 °C. Molecule `CCOC(=O)C1=C(C)NC(=S)N(C(=O)OCC)C1c1cccc(OC)c1` (configuration not stated) returned a melting point of 107 to 109 °C. `CC1(C)CCC(C)(C)C2=C1CC(C(=O)Oc1ccc(C(=O)O)cc1)C2`: the melting point lay within 194 to 195 °C. With `COc1ccc2c(c1)Sc1c(cc(OC)c(O)c1Br)N2C(=O)OC(C)OC(=O)C(C)(C)C` (configuration not stated) the figure was 85 °C.

`O=C(C=Cc1ccc(NC(=O)c2ccccc2)cc1)NO` came in with a melting point of 232 to 234 °C. With `CN(CCO)Cc1ccc(-c2ccc3c(Nc4ccc(Sc5nccn5C)c(Cl)c4)c(C#N)cnc3c2)nc1` the figure was 197 to 199 °C; with `O=C(O)c1cc(O)c(C(=O)c2ccccc2)c([N+](=O)[O-])c1`, 264 to 266 °C; with `Cc1oc(-c2ccc(F)cc2)nc1COc1cccc(CN(O)C(N)=O)c1`, 156 to 157 °C.

Turning to `CCOC(=O)C1Cc2c([nH]c3ccccc23)CN1C(=S)SCc1ccc(Cl)cc1` (configuration not stated), the melting point lay in the range of 195 to 197 °C. As for `C#CC(CC(=O)OC)c1ccc(OC)c(OC2CCCC2)c1` (racemic), the melting point lay within 41 to 42 °C. As for `O=C(Nc1cccc2c(=O)cc(C(=O)O)oc12)c1cc(Cl)c2c(c1)CC(CCCc1ccccc1)O2` (configuration not stated), the figure is 224 to 225 °C; as for `Cc1cccc(-c2[nH]c(C(C)C)nc2-c2cccc(-c3ccc(F)cc3F)c2)n1`, 70 to 72 °C.

`Cc1oc(-c2ccccc2)nc1/C=C/c1ccc(/C=C/CO)cc1` registered a melting point of 165 to 166 °C. With `C1=c2ccccc2=C2N=c3ccc4ccccc4c3=C2C1` the figure was 238 °C. As for `COc1ccc([N+](=O)[O-])cc1OCCO`, the figure is 115 °C; as for `COc1ccc2ncc(C#N)c(Nc3cc(O)c(Cl)cc3F)c2c1`, 228 to 230 °C; as for `CCOC(=O)c1c(C)nc2ccc(NCCCN3CCC(OC(c4ccccc4)c4ccccc4)CC3)nn12`, 117 to 119 °C. With `O=c1[nH]c2nc3ccccc3n2c(=O)n1CCc1ccccc1` the figure was 298 °C. For the molecule `CCn1c(N)nc2cc(CN3CCN(C(c4ccccc4)c4ccccc4)CC3)ccc21`, the melting point was 214 °C. With `O=C(NCCc1cccs1)c1cc(Cl)cc(Cl)c1` the figure was 100 to 102 °C; with `CC(=O)N(c1cc(N)c(F)cc1Cl)S(=O)(=O)CCl`, 176 to 180 °C; with `COc1ccc(CC2CNC(=O)N2)cc1OC1CCCC1` (configuration not stated), 107 to 111 °C. With `O=C1NC(=O)c2c1c(-c1ccccc1Cl)cc1c2c(Br)c(CO)n1CCCO` the figure was 203 to 205 °C; with `COCCCOc1ccc(/C=C(\OC)C(=O)O)c(Oc2ncc(C(F)(F)F)cc2Cl)c1`, 140 to 141 °C; with `COC(=O)Cc1cc(C)ccc1OCc1ccc(OCc2nc(-c3ccccc3)oc2C)cc1`, 80 to 81 °C.

For the molecule `Fc1ccccc1COC1COC(c2ccco2)OC1` (configuration not stated), the melting point is 50.5 to 52 °C. The molecule `CC(=O)Nc1cccc(/C=C/C(=O)N2CC(CCl)c3c2cc([N+](=O)[O-])c2ccccc32)c1` (configuration not stated) came in with a melting point of 214 to 216 °C.

In general, melting point refers to the temperature, or range, at which the solid turns liquid.

The values above are taken from a melting point compilation (Tetko et al.; mined from patent text by program, amines drawn as free bases though some values may be those of a salt).
